We go through 1 molecule from patent US4264736A, “Antibiotic 890A10” (Merck & Co., Inc., priority 1979, dated 1981).

Data set [1] concerns Aerobacter aerogenes MB No. 835. Nature of the data set: Antibiotic spectrum profile, agar zone of inhibition. Conditions: Klebsiella aerogenes, MBNO.835, 0.015 ml of 9.5 μg/ml aqueous solution, 25° C., read-out: Inhib. Zone Diam. Format: cell-based. As for the experimental part: (§1) The test to determine the antibiotic spectrum profiles of antibiotic 890A10 is carried out by application of a 0.015 ml. droplet of a 9.5 μg./ml. aqueous solution of the antibiotic on the surface of a 100×15 mm. petri plate containing 3 ml. of seeded nutrient agar plus 0.2% yeast extract which is incubated at 25° C.

The subject of another data set is Bacillus sp. MB No. 633. The data set is described as above. Conditions: 0.015 ml of 9.5 μg/ml aqueous solution, 25° C., read-out: Inhib. Zone Diam. The format is cell-based. As for the experimental part:
as §1

The subject of data set [2] is Serratia marcescens ATCC 890. Described as above. Format: cell-based. As to conditions: ATCC890, 0.015 ml of 9.5 μg/ml aqueous solution, 25° C., read-out: Inhib. Zone Diam. The protocol: as §1
Data set [3] has as its system Pseudomonas aeruginosa MB No. 979. The description is as above. The format is cell-based. Conditions: MBNO.979, 0.015 ml of 9.5 μg/ml aqueous solution, 25° C., read-out: Inhib. Zone Diam.
Data set [4] relates to Bacillus subtilis ATCC 6633. Described as above. As to conditions: ATCC6633, 0.015 ml of 9.5 μg/ml aqueous solution, 25° C., read-out: Inhib. Zone Diam. Format: cell-based.
A further data set concerns Sarcina lutea ATCC 9341. Described as above. Format: cell-based. As to conditions: Micrococcus luteus, ATCC9341, 0.015 ml of 9.5 μg/ml aqueous solution, 25° C., read-out: Inhib. Zone Diam.
Data set [5] relates to Salmonella gallinarum MB No. 1287. The data set is described as above. The format is cell-based. As to conditions: Salmonella enterica, 0.015 ml of 9.5 μg/ml aqueous solution, 25° C., read-out: Inhib. Zone Diam.
The subject of data set [6] is Xanthomonas vesicatoria MB No. 815. Described as above. The format is cell-based. As to conditions: MBNO.815, 0.015 ml of 9.5 μg/ml aqueous solution, 25° C., read-out: Inhib. Zone Diam.
The test system of data set [7] is Klebsiella pneumoniae MB No. 1264. The description is as above. Format: cell-based. Conditions: MBNO.1264, 0.015 ml of 9.5 μg/ml aqueous solution, 25° C., read-out: Inhib. Zone Diam.
The test system of data set [8] is Erwinia atroseptica ATCC 4446. The description is as above. The format is cell-based. As to conditions: Pectobacterium atrosepticum, ATCC4446, 0.015 ml of 9.5 μg/ml aqueous solution, 25° C., read-out: Inhib. Zone Diam.
The test system of data set [9] is Corynebacterium psedodiph. ATCC 9742. The description is as above. The format is cell-based. Conditions: ATCC9742, 0.015 ml of 9.5 μg/ml aqueous solution, 25° C., read-out: Inhib. Zone Diam.
In data set [10] the test system is Escherichia coli ATCC 9637. The description is as above. Format: cell-based. As to conditions: ATCC9637, 0.015 ml of 9.5 μg/ml aqueous solution, 25° C., read-out: Inhib. Zone Diam.
For data set [11], the system named is Streptococcus faecium MB No. 2820. The description is as above. The format is cell-based. As to conditions: Enterococcus faecium, MBNO.2820, 0.015 ml of 9.5 μg/ml aqueous solution, 25° C., read-out: Inhib. Zone Diam.
Data set [12] relates to Vibrio percolans MB No. 2566 (res. ceph C). Described as above. The format is cell-based. As to conditions: Comamonas terrigena, read-out: Inhib. Zone Diam.
For data set [13], the system named is Proteus vulgaris MB No. 2112 (episome). The data set is described as above. The format is cell-based. As to conditions: read-out: Inhib. Zone Diam.
Data set [14] has as its system Vibrio percolans ATCC 8461. Nature of the data set: Antibiotic spectrum profile, agar zone of inhibition, with penicillinase. Conditions: Comamonas terrigena, ATCC8461; 0.015 ml of 9.5 μg/ml aqueous solution; 25° C.; Vibrio Percolans ATCC 8461 + 2×10^5 u/ml penicillinase; read-out: Inhib. Zone Diam. Format: cell-based.
A short description of data set [15]: Stability in aqueous solution under acidic conditions. The format is physicochemical. As to conditions: free acid form not isolated.
Data set [16] has as its system various gram-positive and gram-negative bacteria. Nature of the data set: Antibacterial activity (statement). Format: cell-based.
The next data set relates to bacterial β-lactamases. Nature of the data set: Inhibition of bacterial β-lactamases (statement). Format: biochemical.

With `CC(=O)NCCSC1=C(C(=O)O)N2C(=O)C(C(C)OS(=O)(=O)O)C2C1` (stereo not shown) [Antibiotic 890A10], the zone of inhibition at 9.5 µg/mL in [1] was found to be 22 mm; in the data set with Bacillus sp. MB No. 633, 30 mm; in [2], 15 mm; in data set [3], 0 mm; in [4], 30 mm; with Sarcina lutea ATCC 9341 it was 33 mm. Moreover, the zone of inhibition at 9.5 µg/mL in data set [5] was 28 mm; in data set [6] it was 20 mm; in [7], 19 mm; in data set [8], 10 mm; in data set [9] it was 12 mm; in data set [10], 17 mm. In addition, the zone of inhibition at 9.5 µg/mL in [11] came to 0 mm; in data set [12], 22 mm; in [13], 30 mm; in data set [14], 25 mm. The “stability under acidic conditions in aqueous solution” value in [15] is “unstable”. Also, the antibacterial activity entry in data set [16] is “active against various gram-positive and gram-negative bacteria”. The “inhibition of bacterial β-lactamases” value in the data set on bacterial β-lactamases is recorded as “potent inhibitor of bacterial β-lactamases”.
